# ChEMBL document CHEMBL3352214, “Studies on indolizines. Evaluation of their biological properties as microtubule-interacting agents and as melanoma targeting compounds” (Eur J Med Chem, 2015)
# Key:
# HL-60(TB) [1] = experiment: Growth inhibition of human HL-60(TB) cells after 48 hrs by SRB assay; format: functional; settings: HL-60, 48 h
# SR = experiment: Growth inhibition of human SR cells after 48 hrs by SRB assay; format: functional
# NCI-H522 [2] = experiment: Growth inhibition of human NCI-H522 cells after 48 hrs by SRB assay; format: functional; settings: NCI-H522, 48 h
# [3] = Growth inhibition of human COLO205 cells after 48 hrs by SRB assay; format: functional; settings: COLO 205, 48 h
# KM12 = experiment: Growth inhibition of human KM12 cells after 48 hrs by SRB assay; format: functional; settings: KM12, 48 h
# HT-29 = experiment: Growth inhibition of human HT-29 cells after 48 hrs by SRB assay; format: functional; settings: HT-29, 48 h
# MDA-MB-435 [4] = experiment: Growth inhibition of human MDA-MB-435 cells after 48 hrs by SRB assay; format: functional; settings: MDA-MB-435, 48 h
# SK-MEL-5 = experiment: Growth inhibition of human SK-MEL-5 cells after 48 hrs by SRB assay; format: functional; settings: SK-MEL-5, 48 h
# [5] = Growth inhibition of human OVCAR3 cells after 48 hrs by SRB assay; format: functional; settings: OVCAR-3, 48 h
# NCI/ADR-RES = experiment: Growth inhibition of human NCI/ADR-RES cells after 48 hrs by SRB assay; format: functional
# A498 [6] = experiment: Growth inhibition of human A498 cells after 48 hrs by SRB assay; format: functional; settings: A498, 48 h
# [7] = Growth inhibition of human PC3 cells after 48 hrs by SRB assay; format: functional; settings: PC-3, 48 h
# SNB-75 [8] = experiment: Growth inhibition of human SNB75 cells after 48 hrs by SRB assay; format: functional; settings: SNB-75, 48 h
# MDA-MB-468 = experiment: Growth inhibition of human MDA-MB-468 cells after 48 hrs by SRB assay; format: functional; settings: MDA-MB-468, 48 h
# MCF7 [9] = experiment: Growth inhibition of human MCF7 cells after 48 hrs by SRB assay; format: functional; settings: MCF7, 48 h
# Ovis aries = organism: Ovis aries; experiment: Inhibition of sheep brain tubulin polymerization at 100 uM by fluorescence assay
# [10] = Inhibition of sheep brain tubulin polymerization by fluorescence assay; parameters: species or system Ovis aries
# [11] = Growth inhibition of human MOLT4 cells at 10^-5 M after 48 hrs by SRB assay; format: functional; settings: MOLT-4, 48 h, read-out: GI
# HL-60(TB) [12] = experiment: Growth inhibition of human HL-60(TB) cells at 10^-5 M after 48 hrs by SRB assay; format: functional; settings: HL-60, 48 h, read-out: GI
# [13] = Growth inhibition of human HOP92 cells at 10^-5 M after 48 hrs by SRB assay; format: functional; settings: HOP-92, 48 h, read-out: GI
# [14] = Growth inhibition of human EKVX cells at 10^-5 M after 48 hrs by SRB assay; format: functional; settings: read-out: GI
# NCI-H522 [15] = experiment: Growth inhibition of human NCI-H522 cells at 10^-5 M after 48 hrs by SRB assay; format: functional; settings: NCI-H522, 48 h, read-out: GI
# [16] = Growth inhibition of human HCT116 cells at 10^-5 M after 48 hrs by SRB assay; format: functional; settings: HCT-116, 48 h, read-out: GI
# MDA-MB-435 [17] = experiment: Growth inhibition of human MDA-MB-435 cells at 10^-5 M after 48 hrs by SRB assay; format: functional; settings: MDA-MB-435, 48 h, read-out: GI
# Malme-3M = experiment: Growth inhibition of human MALME-3M cells at 10^-5 M after 48 hrs by SRB assay; format: functional; settings: read-out: GI
# CAKI-1 = experiment: Growth inhibition of human Caki1 cells at 10^-5 M after 48 hrs by SRB assay; format: functional; settings: CAKI-1, 48 h, read-out: GI
# [18] = Growth inhibition of human PC3 cells at 10^-5 M after 48 hrs by SRB assay; format: functional; settings: PC-3, 48 h, read-out: GI
# [19] = Growth inhibition of human SF295 cells at 10^-5 M after 48 hrs by SRB assay; format: functional; settings: SF-295, 48 h, read-out: GI
# SNB-75 [20] = experiment: Growth inhibition of human SNB75 cells at 10^-5 M after 48 hrs by SRB assay; format: functional; settings: SNB-75, 48 h, read-out: GI
# MCF7 [21] = experiment: Growth inhibition of human MCF7 cells at 10^-5 M after 48 hrs by SRB assay; format: functional; settings: MCF7, 48 h, read-out: GI
# T47D = experiment: Growth inhibition of human T47D cells at 10^-5 M after 48 hrs by SRB assay; format: functional; parameters: Activity: scale not given: the % may be the effect or the level left
# NCI-H522 [22] = experiment: Cytotoxicity against human NCI-H522 cells assessed as cell growth at 10^-5 M after 48 hrs by SRB assay; format: functional; settings: NCI-H522, 48 h, read-out: Activity
# [23] = Cytotoxicity against human HCT116 cells assessed as cell growth at 10^-5 M after 48 hrs by SRB assay; format: functional; settings: HCT-116, 48 h, read-out: Activity
# MDA-MB-435 [24] = experiment: Cytotoxicity against human MDA-MB-435 cells assessed as cell growth at 10^-5 M after 48 hrs by SRB assay; format: functional; settings: MDA-MB-435, 48 h, read-out: Activity
# [25] = Growth inhibition of human HCT15 cells at 10^-5 M after 48 hrs by SRB assay; format: functional; settings: HCT-15, 48 h, read-out: GI
# A498 [26] = experiment: Growth inhibition of human A498 cells at 10^-5 M after 48 hrs by SRB assay; format: functional; settings: A498, 48 h, read-out: GI
# MOLT-4 = experiment: Cytotoxicity against human MOLT4 cells assessed as cell growth at 10^-5 M after 48 hrs by SRB assay; format: functional; settings: MOLT-4, 48 h, read-out: Activity
# Tubulin = experiment: Inhibition of tubulin (unknown origin) polymerization; format: protein-complex assay, Homo sapiens
compound,measurement,setting,value
CCOC(=O)c1cc(C(=O)c2cc(OC)c(OC)c(OC)c2)n2ccc(C)cc12,GI50,HL-60(TB) [1],0.63 µM
same,GI50,SR,0.31 µM
same,GI50,NCI-H522 [2],0.585 µM
same,GI50,[3],0.65 µM
same,GI50,KM12,0.497 µM
same,GI50,HT-29,0.393 µM
same,GI50,MDA-MB-435 [4],0.234 µM
same,GI50,SK-MEL-5,0.411 µM
same,GI50,[5],0.343 µM
same,GI50,NCI/ADR-RES,0.411 µM
same,GI50,A498 [6],0.272 µM
same,GI50,[7],0.976 µM
same,GI50,SNB-75 [8],0.324 µM
same,GI50,MDA-MB-468,0.41 µM
same,GI50,MCF7 [9],0.339 µM
same,inhibition,Ovis aries,72%
same,IC50,[10],28.1 µM
same,inhibition of growth at 10 µM,[11],50%
same,inhibition of growth at 10 µM,HL-60(TB) [12],92%
same,inhibition of growth at 10 µM,[13],88%
same,inhibition of growth at 10 µM,[14],50%
same,inhibition of growth at 10 µM,NCI-H522 [15],100%
same,inhibition of growth at 10 µM,[16],100%
same,inhibition of growth at 10 µM,MDA-MB-435 [17],100%
same,inhibition of growth at 10 µM,Malme-3M,74%
same,inhibition of growth at 10 µM,CAKI-1,66%
same,inhibition of growth at 10 µM,[18],79%
same,inhibition of growth at 10 µM,[19],85%
same,inhibition of growth at 10 µM,SNB-75 [20],82%
same,inhibition of growth at 10 µM,MCF7 [21],88%
same,Activity,T47D,83%
same,growth at 10 µM,NCI-H522 [22],-9%
same,growth at 10 µM,[23],-58%
same,growth at 10 µM,MDA-MB-435 [24],-17%
CCOC(=O)c1cc(C(=O)c2ccc(OC)c(OC)c2)n2ccc(OC)cc12,inhibition,Ovis aries,51%
same,inhibition of growth at 10 µM,[11],100%
same,inhibition of growth at 10 µM,[14],0%
same,inhibition of growth at 10 µM,NCI-H522 [15],0%
same,inhibition of growth at 10 µM,[16],2%
same,inhibition of growth at 10 µM,[25],7%
same,inhibition of growth at 10 µM,MDA-MB-435 [17],2%
same,inhibition of growth at 10 µM,Malme-3M,12%
same,inhibition of growth at 10 µM,A498 [26],15%
same,inhibition of growth at 10 µM,CAKI-1,3%
same,inhibition of growth at 10 µM,[18],12%
same,inhibition of growth at 10 µM,[19],3%
same,inhibition of growth at 10 µM,SNB-75 [20],0%
same,inhibition of growth at 10 µM,MCF7 [21],8%
same,inhibition of growth at 10 µM,"T47D; Homo sapiens, T47D, 48 h, read-out: GI",4%
same,growth at 10 µM,MOLT-4,-53%
COc1ccc(C(=O)c2cc(OC)c(OC)c(OC)c2)cc1O [PHENSTATIN],IC50,Tubulin,3.4 µM
same,inhibition,Ovis aries,99%
same,IC50,[10],3.43 µM
